Measured values from patent US6764996B1, “9a-azalides with antibacterial activity” (Abbott Laboratories, priority 1999, dated 2004).

How the values were obtained:
Test in all cases: In vitro antibacterial activity, agar dilution MIC
Format in all cases: cell-based
[1] = test system: Streptococcus Pneumonia 5979; settings: code ZZ: Streptococcus Pneumonia 5979; BHI agar, 35-37° C., 20 to 24 hours; unit assumed
Description: (§1) Representative compounds of the present invention were assayed in vitro for antibacterial activity as follows: Twelve petri dishes containing successive aqueous dilutions of the test compound mixed with 10 mL of sterilized Brain Heart Infusion (BHI) agar (Difco 0418-01-5) were prepared. Each plate was inoculated with 1:100 (or 1:10 for slow-growing strains, such as Micrococcus and Streptococcus) dilutions of up to 32 different microorganisms, using a Steers replicator block. The inoculated plates were incubated at 35-37° C. for 20 to 24 hours. In addition, a control plate, using BHI agar containing no test compound, was prepared and incubated at the beginning and end of each test.
(§2) An additional plate containing a compound having known susceptibility patterns for the organisms being tested and belonging to the same antibiotic class as the test compound was also prepared and incubated as a further control, as well as to provide test-to-test comparability.
(§3) After incubation, each plate was visually inspected. The minimum inhibitory concentration (MIC) was defined as the lowest concentration of drug yielding no growth, a slight haze, or sparsely isolated colonies on the inoculum spot as compared to the growth control.

[2] = test system: Mycobacterium smegmatis ATCC 114; settings: code UU: Mycobacterium smegmatis ATCC 114; BHI agar, 35-37° C., 20 to 24 hours; unit assumed
Description: as §1
as §2, with “comparability. Erythromycin A was used for this purpose.” for “comparability.”
as §3

[3] = test system: Streptococcus pyogenes 930; settings: code MM: Streptococcus pyogenes 930; BHI agar, 35-37° C., 20 to 24 hours; unit assumed
Description: as §1
as §2, with “comparability. Erythromycin A was used for this purpose.” for “comparability.”
as §3

[4] = test system: Streptococcus Pneumonia ATCC 6303; settings: code XX: Streptococcus Pneumonia ATCC 6303; BHI agar, 35-37° C., 20 to 24 hours; unit assumed
Description: as §1
as §2, with “comparability. Erythromycin A was used for this purpose.” for “comparability.”
as §3

[5] = test system: Streptococcus pyogenes EES61; settings: code LL: Streptococcus pyogenes EES61; BHI agar, 35-37° C., 20 to 24 hours; unit assumed
Description: as §1
as §2, with “comparability. Erythromycin A was used for this purpose.” for “comparability.”
as §3

[6] = test system: Streptococcus agalactiae CMX 508; settings: code KK: Streptococcus agalactiae CMX 508; BHI agar, 35-37° C., 20 to 24 hours; unit assumed
Description: as §1
as §2, with “comparability. Erythromycin A was used for this purpose.” for “comparability.”
as §3

Escherichiacoli SS = settings: code RR: Escherichiacoli SS; BHI agar, 35-37° C., 20 to 24 hours; unit assumed
Description: as §1
as §2, with “comparability. Erythromycin A was used for this purpose.” for “comparability.”
as §3

[7] = test system: Streptococcus Pneumonia 5649; settings: code ZA: Streptococcus Pneumonia 5649; BHI agar, 35-37° C., 20 to 24 hours; unit assumed
Description: as §1
as §2, with “comparability. Erythromycin A was used for this purpose.” for “comparability.”
as §3

[8] = test system: Haemophilislnfluenzae DILL AMP R; settings: code WW: Haemophilislnfluenzae DILL AMP R; BHI agar, 35-37° C., 20 to 24 hours; unit assumed
Description: as §1
as §2, with “comparability. Erythromycin A was used for this purpose.” for “comparability.”
as §3

[9] = test system: Streptococcus Pneumonia GYR 1171; settings: code YY: Streptococcus Pneumonia GYR 1171; BHI agar, 35-37° C., 20 to 24 hours; unit assumed
Description: as §1
as §2, with “comparability. Erythromycin A was used for this purpose.” for “comparability.”
as §3

[10] = test system: Staphylococcus aureus NCTC 10649M; settings: code EE: Staphylococcus aureus NCTC 10649M; BHI agar, 35-37° C., 20 to 24 hours; unit assumed
Description: as §1
as §2, with “comparability. Erythromycin A was used for this purpose.” for “comparability.”
as §3

[11] = test system: Staphylococcus aureus A-5278; settings: code CC: Staphylococcus aureus A-5278; BHI agar, 35-37° C., 20 to 24 hours; unit assumed
Description: as §1
as §2, with “comparability. Erythromycin A was used for this purpose.” for “comparability.”
as §3

[12] = test system: Staphylococcus epidermidis 3519; settings: code HH: Staphylococcus epidermidis 3519; BHI agar, 35-37° C., 20 to 24 hours; unit assumed
Description: as §1
as §2, with “comparability. Erythromycin A was used for this purpose.” for “comparability.”
as §3

[13] = test system: Nocardia Asteroides ATCC 99700; settings: code VV: Nocardia Asteroides ATCC 99700; BHI agar, 35-37° C., 20 to 24 hours; unit assumed
Description: as §1
as §2, with “comparability. Erythromycin A was used for this purpose.” for “comparability.”
as §3

Candida albicans CCH 442 = settings: code TT: Candida albicans CCH 442; BHI agar, 35-37° C., 20 to 24 hours; unit assumed
Description: as §1
as §2, with “comparability. Erythromycin A was used for this purpose.” for “comparability.”
as §3

[14] = test system: Staphylococcus aureus 1775; settings: code GG: Staphylococcus aureus 1775; BHI agar, 35-37° C., 20 to 24 hours; unit assumed
Description: as §1
as §2, with “comparability. Erythromycin A was used for this purpose.” for “comparability.”
as §3

[15] = test system: Streptococcus bovis A-5169; settings: code JJ: Streptococcus bovis A-5169; BHI agar, 35-37° C., 20 to 24 hours; unit assumed
Description: as §1
as §2, with “comparability. Erythromycin A was used for this purpose.” for “comparability.”
as §3

[16] = test system: Staphylococcus aureus A-5177; settings: code BB: Staphylococcus aureus A-5177; BHI agar, 35-37° C., 20 to 24 hours; unit assumed
Description: as §1
as §2, with “comparability. Erythromycin A was used for this purpose.” for “comparability.”
as §3

[17] = test system: Streptococcus pyogenes PIU 2548; settings: code NN: Streptococcus pyogenes PIU 2548; BHI agar, 35-37° C., 20 to 24 hours; unit assumed
Description: as §1
as §2, with “comparability. Erythromycin A was used for this purpose.” for “comparability.”
as §3

[18] = test system: Staphylococcus aureus ATCC 6538P; settings: code AA: Staphylococcus aureus ATCC 6538P; BHI agar, 35-37° C., 20 to 24 hours; unit assumed
Description: as §1
as §2, with “comparability. Erythromycin A was used for this purpose.” for “comparability.”
as §3

Escherichiacoli JUHL = settings: code QQ: Escherichiacoli JUHL; BHI agar, 35-37° C., 20 to 24 hours; unit assumed
Description: as §1
as §2, with “comparability. Erythromycin A was used for this purpose.” for “comparability.”
as §3

[19] = test system: Micrococcusluteus ATCC 4698; settings: code PP: Micrococcusluteus ATCC 4698; BHI agar, 35-37° C., 20 to 24 hours; unit assumed
Description: as §1
as §2, with “comparability. Erythromycin A was used for this purpose.” for “comparability.”
as §3

SMILES | Antibacterial Activity (MIC) [1] [µg/mL] | Antibacterial Activity (MIC) [2] [µg/mL] | Antibacterial Activity (MIC) [3] [µg/mL] | Antibacterial Activity (MIC) [4] [µg/mL] | Antibacterial Activity (MIC) [5] [µg/mL] | Antibacterial Activity (MIC) [6] [µg/mL] | Antibacterial Activity (MIC) (Escherichiacoli SS) [µg/mL] | Antibacterial Activity (MIC) [7] [µg/mL] | Antibacterial Activity (MIC) [8] [µg/mL] | Antibacterial Activity (MIC) [9] [µg/mL] | Antibacterial Activity (MIC) [10] [µg/mL] | Antibacterial Activity (MIC) [11] [µg/mL] | Antibacterial Activity (MIC) [12] [µg/mL] | Antibacterial Activity (MIC) [13] [µg/mL] | Antibacterial Activity (MIC) (Candida albicans CCH 442) [µg/mL] | Antibacterial Activity (MIC) [14] [µg/mL] | Antibacterial Activity (MIC) [15] [µg/mL] | Antibacterial Activity (MIC) [16] [µg/mL] | Antibacterial Activity (MIC) [17] [µg/mL] | Antibacterial Activity (MIC) [18] [µg/mL] | also measured
CCC1OC(=O)C(C)C(=O)C(C)C(OC2OC(C)CC(N(C)C)C2O)C(C)(OCC=Cc2cnc3ccccc3c2)CC(C)CN(C)C(C)C2OC(=O)OC12C (centres unmarked) [Example 6, Compound of formula (II): R^1 is —CH2CH═CH-(3-quinolinyl), R^2 and R^3 together are oxo, R^4 and R^5 together are —C(O)—, R^6 is methyl, R^8 is hydrogen] | > 128 | 6.2 | > 100 | 0.06 | 0.05 | 0.05 | 0.78 | 8 | 4 | 0.03 | 0.39 | > 100 | 0.2 | 0.1 | > 100 | > 100 | 0.02 | 12.5 | 6.2 | 0.2 | Antibacterial Activity (MIC) (Escherichiacoli JUHL): 50 µg/mL; Antibacterial Activity (MIC) [19]: 0.39 µg/mL
CCC1OC(=O)C(C)C(OC2CC(C)(OC)C(O)C(C)O2)C(C)C(OC2OC(C)CC(N(C)C)C2O)C(C)(OCC=Cc2cnc3ccccc3c2)CC(C)CN(C)C(C)C(O)C1(C)O (centres unmarked) [Example 7, Compound of formula (I): R^1 is —CH2CH═CH-(3-quinolinyl), R^4 is hydrogen, R^5 is hydrogen, R^6 is methyl, R^7 is hydrogen, R^8 is hydrogen] | > 128 | 6.2 | > 100 | 0.12 | 0.05 | 0.1 | 0.39 | 16 | 8 | 0.12 | 0.39 | > 100 | 0.2 | 0.05 | > 100 | > 100 | 0.1 | 3.1 | 6.2 | 0.1 | Antibacterial Activity (MIC) (Escherichiacoli JUHL): 100 µg/mL; Antibacterial Activity (MIC) [19]: 0.2 µg/mL
